# Tested on: cloned mammalian (mSlo or hSlo) BK channels expressed in Xenopus oocytes
# Assay: Increase of cloned BK-mediated outward current, two-electrode voltage clamp in Xenopus oocytes (IBTX-sensitive current)
# Assay type: cell-based
# Details: at 20 μM expressed as percent of controls; at least 5 oocytes
# Method: The ability of compounds described in the present invention to open BK channels and increase whole-cell outward (K^+) BK-mediated currents was assessed under voltage-clamp conditions by determining their ability to increase cloned mammalian (mSlo or hSlo) BK-mediated outward current heterologously expressed in Xenopus oocytes [Butler, A., et al., Science, 261: 221-224 (1993); and Dworetzky, S. I., et al., Mol. Brain Res., 27: 189-193 (1994)]. The two BK constructs employed represent nearly structurally identical homologous proteins, and have proven to be pharmacologically identical in our tests. […] The relative contribution of BK channels current to total outward current was determined by subtraction of the current remaining in the presence of IBTX (non-BK current) from the current profiles obtained in all other experimental conditions (control, drug, and wash). […] All compounds were tested in at least 5 oocytes and are reported at the single concentration of 20 μM; the effect of the selected compounds of Formula I on BK current was expressed as the percent of control IBTX-sensitive current and is listed in Table I. Recordings were accomplished using standard two-electrode voltage clamp techniques [Stuhmer, W., et al., Methods in Enzymology, Vol. 207: 319-339 (1992)]; voltage-clamp protocols consisted of 500-750 ms duration step depolarization from a holding potential of -60 mV to +140 mV in 20 mV steps. The experimental media (modified Barth's solution) consisted of (in mM): NaCl (88), NaHCO3 (2.4), KCl (1.0), HEPES (10), MgSO4 (0.82), Ca(NO3)2 (0.33), CaCl2 (0.41); pH 7.5.
row,Compound,BK Current (percent of control IBTX-sensitive current)
1,"O=c1[nH]c2cc(Cl)cc(Cl)c2c(-c2cc(Cl)ccc2O)c1O [Example 2, 5,7-Dichloro-4-(5-chloro-2-hydroxyphenyl)-3-hydroxy-2(1H)-quinolinone]",++ (>150%)
2,O=c1[nH]c2ccccc2c(-c2cc(Cl)ccc2O)c1O [Example 8],+ (100-150%)
3,O=c1[nH]c2cc(Cl)cc(Cl)c2c(-c2cc(Br)ccc2O)c1O [Example 12],++ (>150%)
4,Cn1c(=O)c(O)c(-c2cc(Br)ccc2O)c2ccccc21 [Example 7],+ (100-150%)
5,O=c1[nH]c2ccc(C(F)(F)F)cc2c(-c2cc(Cl)ccc2O)c1O [Example 16],++ (>150%)
6,COc1ccc(Br)cc1-c1c(O)c(=O)[nH]c2ccc([N+](=O)[O-])cc12 [Example 3],+ (100-150%)
7,O=c1[nH]c2ccc(Cl)cc2c(-c2cc(Cl)ccc2O)c1O [Example 13],+ (100-150%)
8,O=c1[nH]c2cc(C(F)(F)F)ccc2c(-c2cc(Cl)ccc2O)c1O [Example 10],++ (>150%)
9,O=c1[nH]c2c(Cl)cccc2c(-c2cc(Cl)ccc2O)c1O [Example 21],+ (100-150%)
10,O=c1[nH]c2ccc(Br)cc2c(-c2cc(Cl)ccc2O)c1O [Example 20],++ (>150%)
11,O=c1[nH]c2ccc(Br)cc2c(-c2cc(Br)ccc2O)c1O [Example 19],++ (>150%)
12,O=c1[nH]c2ccccc2c(-c2cc(Br)ccc2O)c1O [Example 6],+ (100-150%)
13,COc1ccc(Br)cc1-c1c(O)c(=O)[nH]c2cc(Cl)cc(Cl)c12 [Example 4],++ (>150%)
14,O=c1[nH]c2cccc(Cl)c2c(-c2cc(Cl)ccc2O)c1O [Example 14],+ (100-150%)
15,Cn1c(=O)c(O)c(-c2cc(Cl)ccc2O)c2c(Cl)cc(Cl)cc21 [Example 18],++ (>150%)
16,O=c1[nH]c2ccc([N+](=O)[O-])cc2c(-c2cc(Br)ccc2O)c1O [Example 9],++ (>150%)
17,O=c1[nH]c2cc(C(F)(F)F)ccc2c(-c2cc(Br)ccc2O)c1O [Example 11],++ (>150%)
18,COc1ccc(Cl)cc1-c1c(O)c(=O)[nH]c2cc(Cl)ccc12 [Example 5],+ (100-150%)
19,O=c1[nH]c2ccc(C(F)(F)F)cc2c(-c2cc(Br)ccc2O)c1O [Example 17],++ (>150%)
20,O=c1[nH]c2cc(Cl)ccc2c(-c2cc(Cl)ccc2O)c1O [Example 15],++ (>150%)

# Tested on: BK channel
# Assay: not given
# Details: very limited electrophysiological experiments; Laurent 1993; cited from earlier work
row,Compound,BK channel opening activity
1,"CNc1nc(Br)cn2cc(C#N)nc12 [SCA-40, 6-Bromo-8-(methylamino) imidazo[1,2-a]pyrazine-2-carbonitrile]",BK channel opener

# Tested on: Ca^2+ -activated potassium channels
# Assay: not given
# Details: outside-out patches, myelinated nerve fibers; Koh 1994; cited from earlier work
row,Compound,open probability of Ca^2+ -activated potassium channels
1,O=C(CCc1ccc(O)cc1)c1c(O)cc(O)cc1O [Phloretin],increase the open probability

# Tested on: BK channel
# Assay: not given
# Details: Galvez 1990; cited from earlier work
row,Compound,BK channel block
1,"iberiotoxin: specific and potent BK channel-blocking toxin iberiotoxin (IBTX) (QFTDVDCSVSKECWSVCKDLFGVDRGKCMGKKCRCYQ; UniProt P24663 1-37, looked up)",specific and potent BK channel-blocking toxin

# Reference: patent US5892045A, “4-aryl-3-hydroxyquinolin-2-one derivatives as ion channel modulators” (priority 1997, dated 1999)
